What was measured:
Jurkat cells [1] = test: Extracellular release of cytochrome c into cell culture medium (immunoprecipitation and immunoblot); assay type: cell-based, human; conditions: for cytochrome c in the cell culture medium: 16 h, anti-CD95 mAb 1 μg/ml, etoposide 25 μg/ml, doxorubicin 2 μg/ml
Protocol: 5×10^6 Jurkat cells were cultured in growth medium and either left untreated (control) or stimulated for 16 h with staurosporine (stauro, 2.5 μM), anti-CD95 mAb (α-CD95, 1 μg/ml), etoposide (etopo, 25 μg/ml) or doxorubicin (doxo, 2 μg/ml). Cytochrome c was precipitated from the cell culture medium (m) and the cellular extracts (c) with antibodies against the native molecule. The immunoprecipitated material was separated by SDS-PAGE and analysed by immunoblotting.
5×10^6 Jurkat cells were cultured in growth medium and stimulated for 15 h with the indicated concentrations of anti-CD95 mAb and staurosporine or for 24 h with the indicated concentrations of etoposide or doxorubicin. Cytochrome c was precipitated from the culture medium (m) and the cellular extracts (c) with antibodies against the native molecule. The immunoprecipitated material was separated by SDS-PAGE and analysed by immunoblotting. The quantity of cytochrome c was determined by densitometric analysis. The graphs display the amount of cytochrome c in the culture medium relative to the total amount of cytochrome c present in medium and cells.
1×10^6 Jurkat cells were incubated with medium or staurosporine (stauro, 2.5 μM) and harvested after is the indicated time points (+). A cell culture sample prior to applying staurosporine and a cell culture sample after 15 h without the addition of staurosporine are shown for intercomparison (−). Release of cytochrome c was determined by immunoprecipitation of the medium fractions and subsequent immunoblotting. […] The amounts of cytochrome c in the supernatants indicate the absolute densitometric values.
The human Jurkat T-cell line and mouse L929 fibroblasts were grown at 37° C., 5% CO2, in RPMI-1640 medium supplemented with 10% heat-inactivated fetal calf serum, penicillin and streptomycin (all from GIBCO BRL). Etoposide, actinomycin D and doxorubicin were purchased from Sigma and staurosporine from Roche Diagnostics. All stimuli were dissolved in ethanol and kept at −70° C.

Jurkat cells [2] = test: Measurement of cell death by flow cytometry (hypodiploid nuclei, PI uptake); assay type: cell-based, human
Protocol: The percentage of apoptotic hypodiploid cells is shown on the right of the histograms. […] 1×10^6 Jurkat cells were incubated with medium or staurosporine (stauro, 2.5 μM) and harvested after the indicated time points.
Also shown is the detection of cell death by PI (propidium iodide) uptake and of apoptosis by detecting hypodiploid nuclei, both by flow cytometry. The percentage of dead cells or apoptotic hypodiploid cells is shown on the right of the histograms. 1×10^6 cells were cultured in normal growth medium (control), or in the presence of staurbsporine (stauro, 2.5 μM) or the indicated concentrations of H2O2 for 18 h. […] As also shown, cell death was detected by PI (propidium iodide) uptake and apoptosis by detecting hypodiploid nuclei, both by flow cytometry.

Jurkat cells [3] = test: LDH activity in the supernatant; assay type: cell-based, human; conditions: staurosporine 2.5 μM, 15 hours
Protocol: 1×10^6 Jurkat cells were incubated with medium or staurosporine (stauro, 2.5 μM) and harvested after is the indicated time points (+). A cell culture sample prior to applying staurosporine and a cell culture sample after 15 h without the addition of staurosporine are shown for intercomparison (−). Release of cytochrome c was determined by immunoprecipitation of the medium fractions and subsequent immunoblotting. Heavy; and light chain of anti-cytochrome c antibody and cytochrome c are indicated by open and closed arrowheads, respectively. The LDH activity in the supernatant of apoptotic cells represents the percentage of total LDH activity in the sample. The amounts of cytochrome c in the supernatants indicate the absolute densitometric values. The release of cytochrome c from the cell is a rapid process. Already one hour after apoptosis induction with staurosporine cytochrome c could be detected in the extracellular medium. […] Only about 20% of the total LDH were detected in the supernatants of apoptotic cells after 15 hours of staurosporine treatment.
Cell viability was also determined by monitoring the release of the cytoplasmic enzyme lactate dehydrogenase (LDH), an indicator for cell death. In order to obtain total LDH activity, cells were lysed with 1% Triton X-100. […]

L929 cells [4] = test: Extracellular release of cytochrome c into cell culture medium (immunoprecipitation and immunoblot); assay type: cell-based, mouse; conditions: TNF-α 10 ng/ml plus actinomycin D 1 μg/ml in presence of zVAD-fmk 100 μM, 8 h
Protocol: 3×10^6 L929 cells were incubated with medium or with TNF-α (10 ng/ml) plus actinomycin D (Act. D, 1 μg/ml) in the absence or presence of the caspase inhibitor zVAD-fmk (benzyloxycarbonyl-Val-Ala-Asp-fluoromethylketone, zVAD, 100 μM) for 8 h. The release of cytochrome c was determined by immunoprecipitation of culture medium (m) and for intercomparison of corresponding cellular extracts (c) and subsequent immunoblotting. Heavy and light chain of the anti-cytochrome c antibody and cytochrome c are indicated by open and closed arrowheads, respectively.
The human Jurkat T-cell line and mouse L929 fibroblasts were grown at 37° C., 5% CO2, in RPMI-1640 medium supplemented with 10% heat-inactivated fetal calf serum, penicillin and streptomycin (all from GIBCO BRL). […] The broad-range caspase inhibitor benzyloxycarbonyl-Val-Ala-Asp-fluoromethylketone (zVAD-fmk) was purchased from Enzyme Systems (Dublin, Calif.); all other chemicals were from Merck KG or Roth GmbH.
To determine the cellular cytochrome c content, cells were collected by centrifugation, washed in cold PBS and extracted in cold lysis buffer (50 mM Tris, pH 7.4, 150 mM NaCl, 1% Triton-X100 containing 3 μg/ml aprotinin, 3 μg/ml leupeptin, 3 μg/ml pepstatin and 2 mM PMSF). […] The amount of immunoprecipitated cytochrome c was determined by densitometric analysis using the NIH image software (National Institutes of Health).

L929 cells [5] = test: Measurement of cell death by flow cytometry (hypodiploid nuclei, PI uptake); assay type: cell-based, mouse; conditions: TNF-α 10 ng/ml plus actinomycin D 1 μg/ml in presence of zVAD-fmk 100 μM, 8 h
Protocol: Also shown is the detection of cell death by PI (propidium iodide) uptake and of apoptosis by detecting hypodiploid nuclei, both by flow cytometry. The percentage of dead cells or apoptotic hypodiploid cells is shown on the right of the histograms. 3×10^6 L929 cells were incubated with medium or with TNF-α (10 ng/ml) plus actinomycin D (Act. D, 1 μg/ml) in the absence or presence of the caspase inhibitor zVAD-fmk (benzyloxycarbonyl-Val-Ala-Asp-fluoromethylketone, zVAD, 100 μM) for 8 h. The release of cytochrome c was determined by immunoprecipitation of culture medium (m) and for intercomparison of corresponding cellular extracts (c) and subsequent immunoblotting. […] As also shown, cell death was detected by PI (propidium iodide) uptake and apoptosis by detecting hypodiploid nuclei, both by flow cytometry. […]
For determination of apoptosis, Jurkat and L929 cells were seeded in microtiter plates and treated with the cytotoxic agents for the indicated time periods. […] Briefly, apoptotic nuclei were prepared by lysing cells in a hypotonic lysis buffer (1% sodium citrate, 0.1% Triton X-100, 50 μg/ml propidium iodide) and subsequently analysed by flow cytometry. In parallel, cell death as assessed by membrane damage was determined by the uptake of propidium iodide (PI, 2 μg/ml in PBS; Sigma) into non-fixed cells. […]

[6] = Jurkat cells, staurosporine 2.5 μM
[7] = Jurkat T-cells, 100 μM and 250 μM, 18 h

COc1cccc2c1C(=O)c1c(O)c3c(c(O)c1C2=O)C[C@@](O)(C(=O)CO)C[C@@H]3O[C@H]1C[C@H](N)[C@H](O)[C@H](C)O1 [doxorubicin]
cytochrome c in the cell culture medium (Jurkat cells [1]; [6]): large amounts of cytochrome c

COc1cc([C@@H]2c3cc4c(cc3[C@@H](O[C@@H]3O[C@@H]5CO[C@@H](C)O[C@H]5[C@H](O)[C@H]3O)[C@H]3COC(=O)[C@H]23)OCO4)cc(OC)c1O [etoposide]
cytochrome c in the cell culture medium (Jurkat cells [1]; [6]): large amounts of cytochrome c

OO [hydrogen peroxide]
cytochrome c release into the extracellular cell culture medium (Jurkat cells [1]; [7]): no cytochrome c release
mode of cell death (PI uptake, hypodiploid nuclei) (Jurkat cells [2]; [7]): induced necrotic death

CN[C@@H]1C[C@H]2O[C@@](C)([C@@H]1OC)n1c3ccccc3c3c4c(c5c6ccccc6n2c5c31)C(=O)NC4 [staurosporine]
cytochrome c in the cell culture medium (Jurkat cells [1]; [6]): large amounts of cytochrome c
time at which cytochrome c could be detected in the extracellular medium (Jurkat cells [1]; [6]): one hour
LDH detected in the supernatants, percentage of total LDH (Jurkat cells [3]): about 20%
time until formation of hypodiploid nuclei after triggering apoptosis (Jurkat cells [2]; [6]): ≥ 5 h

benzyloxycarbonyl-Val-Ala-Asp-fluoromethylketone [zVAD-fmk]
extracellular cytochrome c release (L929 cells [4]): not during necrotic cell death
mode of cell death (hypodiploid nuclei, PI uptake) (L929 cells [5]): resulted in necrosis
